Measurements from US6362336B1, “Chemical compounds” (Zeneca Limited, priority 1995, dated 2002).

melting point | Compound
249 to 251 °C | COc1cc2c(Nc3ccc(C)c(O)c3)ncnc2cc1OCc1ccncc1.Cl
252 to 254 °C | COc1cc2c(Nc3ccc(C)c(O)c3)ncnc2cc1OCc1c(C)noc1C.Cl
278 to 282 °C | COc1cc2c(Nc3ccc(C)c(O)c3)ncnc2cc1OCCCc1ccncc1.Cl
246 to 248 °C | COc1cc2c(Nc3cc(O)c(C)cc3F)ncnc2cc1OCCCc1ccncc1.Cl
257 to 260 °C | COc1cc2c(Nc3cc(O)c(C)cc3F)ncnc2cc1OCc1ccncc1.Cl
294 to 298 °C | COc1cc2c(Nc3cc(O)c(C)cc3F)ncnc2cc1OCc1ccccc1.Cl
220 to 225 °C | COc1cc2c(Nc3ccc(Cl)cc3F)ncnc2cc1OCc1csc(C)n1.Cl
195 to 220 °C | COc1cc2c(Nc3cc(O)c(C)cc3F)ncnc2cc1OCCn1ccnc1.Cl
265 to 270 °C | COc1cc2c(Nc3cc(O)c(C)cc3F)ncnc2cc1OCc1ccc(C#N)cc1.Cl
189 to 191 °C | COc1cc2c(Nc3ccc(Cl)cc3F)ncnc2cc1OCCc1ccncc1.Cl
216 to 221 °C | COc1cc2c(Nc3ccc(Cl)cc3F)ncnc2cc1OCc1cccnc1.Cl
236 to 238 °C | COc1cc2c(Nc3ccc(C)c(O)c3)ncnc2cc1OCc1ccccn1.Cl
224 to 229 °C | COc1cc2c(Nc3ccc(Cl)cc3F)ncnc2cc1OCCc1nccn1C.Cl
237 to 239 °C | COc1cc2c(Nc3ccc(Cl)cc3F)ncnc2cc1OCc1ccncn1.Cl
243 to 248 °C | COc1cc2c(Nc3ccc(Cl)cc3F)ncnc2cc1OCCCN(C)c1ccncc1.Cl
194 to 196 °C | COc1cc2c(Nc3ccc(Cl)cc3F)ncnc2cc1OCCN(C)c1ncccn1.Cl
245 to 250 °C | COc1cc2c(Nc3cc(O)c(C)cc3F)ncnc2cc1OCc1ccnc(Cl)c1.Cl
257 to 260 °C | COc1cc2c(Nc3ccc(C)c(O)c3)ncnc2cc1OCc1nccn1C.Cl
271 to 273 °C (dec.) | COc1cc2c(Nc3ccc(Cl)cc3F)ncnc2cc1OCc1cc(Cl)[nH]c(=O)c1.Cl
243 to 245 °C | COc1cc2c(Nc3ccc(C)c(O)c3)ncnc2cc1OCc1csc(C)n1.Cl
253 to 257 °C | Cl.Oc1cc(Nc2ncnc3cc(OCc4ccccc4)ccc23)c(F)cc1Cl
277 to 281 °C | COc1cc2c(Nc3cc(O)c(Cl)cc3F)ncnc2cc1OCc1ccsc1.Cl

melting point | Compound
246 to 248 °C | COc1cc2c(Nc3ccc(C)c(O)c3)ncnc2cc1OCc1ccsc1.Cl
194 to 202 °C | COc1cc2c(Nc3ccc(Cl)cc3F)ncnc2cc1OCc1csc(NC(C)=O)n1.Cl
202 to 204 °C | COc1cc2c(Nc3ccc(C)c(O)c3)ncnc2cc1OCc1csc(NC(C)=O)n1.Cl
290 °C | COc1cc2c(Nc3ccc(Cl)cc3F)ncnc2cc1OCc1ccnc(N(C)C)c1.Cl
258 to 259 °C | COc1cc2c(Nc3ccc(C)c(O)c3)ncnc2cc1OCc1cccnc1 [Example 3, 4-(3-hydroxy-4-methylanilino)-6-methoxy-7-(3-pyridylmethoxy)quinazoline]
290 to 291 °C | COc1cc2c(Nc3ccc(C)c(O)c3)ncnc2cc1OCc1ccncn1 [Example 5, 4-(3-hydroxy-4-methylanilino)-6-methoxy-7-(pyrimidin-4-ylmethoxy)quinazoline]
200 to 202 °C | COc1cc2c(Nc3ccc(Cl)cc3F)ncnc2cc1OCCOc1ccncc1 [Example 17, 4-(4-chloro-2-fluoroanilino)-6-methoxy-7-(2-(4-pyridyloxy)ethoxy)quinazoline]
209 to 211 °C | COc1cc2c(Nc3ccc(Cl)cc3F)ncnc2cc1OCCn1ccccc1=O [Example 18, 4-(4-chloro-2-fluoroanilino)-6-methoxy-7-[2-(2-oxo-1,2-dihydro-1-pyridyl)ethoxy]quinazoline]
> 250 °C | COc1cc2c(Nc3ccc(Cl)cc3F)ncnc2cc1OCCCn1ccc(=O)cc1 [Example 19, 4-(4-chloro-2-fluoroanilino)-6-methoxy-7-[3-(4-oxo-1,4-dihydro-1-pyridyl)propoxy]quinazoline]
215 to 218 °C | COc1cc2c(Nc3ccc(Cl)cc3F)ncnc2cc1OCc1ccccn1 [Example 39, 4-(4-chloro-2-fluoroanilino)-6-methoxy-7-((2-pyridyl)methoxy)quinazoline]
197 to 198 °C | COc1cc2c(Oc3ccc(Cl)cc3F)ncnc2cc1OCc1ccncc1 [Example 44, 4-(4-chloro-2-fluorophenoxy)-6-methoxy-7-((4-pyridyl)methoxy)quinazoline]
208 to 212 °C | COc1cc2c(Nc3ccc(Cl)cc3F)ncnc2cc1OCCN(C)c1cc(C)nc(C)c1 [Example 46, 4-(4-chloro-2-fluoroanilino)-7-(2-(N-(2,6-dimethyl-4-pyridyl)-N-methylamino)ethoxy)-6-methoxyquinazoline]
210 to 212 °C | COc1cc2c(Nc3ccc(Cl)cc3F)ncnc2cc1OCc1ccnc(Br)c1 [Example 59, 7-((2-bromo-4-pyridyl)methoxy)-4-(4-chloro-2-fluoroanilino)-6-methoxyquinazoline]
209 to 213 °C | COc1cc2c(Nc3ccc(Cl)cc3F)ncnc2cc1OCc1ccnc(C#N)c1 [Example 60, 4-(4-chloro-2-fluoroanilino)-7-((2-cyano-4-pyridyl)methoxy)-6-methoxyquinazoline]
202 to 204 °C | COc1cc(COc2cc3ncnc(Nc4ccc(Cl)cc4F)c3cc2OC)ccn1 [Example 62, 4-(4-chloro-2-fluoroanilino)-7-((2-methoxy-4-pyridyl)methoxy)-6-methoxyquinazoline]
221 to 224 °C | COc1cc2c(Nc3ccc(Cl)cc3F)ncnc2cc1OCc1ccnc(C)c1 [Example 63, 4-(4-chloro-2-fluoroanilino)-6-methoxy-7-((2-methyl-4-pyridyl)methoxy)quinazoline]
216 to 218 °C | COc1cc2c(Nc3ccc(Cl)cc3F)ncnc2cc1OCCCn1ccccc1=O [Example 65, 4-(4-chloro-2-fluoroanilino)-6-methoxy-7-(3-(2-oxo-1,2-dihydro-1-pyridyl)propoxy)quinazoline]
199 to 201 °C | COc1cc2c(Nc3ccc(Cl)cc3F)ncnc2cc1OCCCSc1nccn1C [Example 66, 4-(4-chloro-2-fluoroanilino)-6-methoxy-7-(3-(1-methylimidazol-2-ylthio)propoxy)quinazoline]
138 to 140 °C | COc1cc2c(Nc3ccc(Cl)cc3F)ncnc2cc1OCCCOc1ccncc1 [Example 67, 4-(4-chloro-2-fluoroanilino)-6-methoxy-7-(3-(4-pyridyloxy)propoxy)quinazoline]
182 to 186 °C | COc1cc2c(Nc3ccc(Cl)cc3F)ncnc2cc1OCCSc1ccncc1 [Example 68, 4-(4-chloro-2-fluoroanilino)-6-methoxy-7-(2-(4-pyridylthio)ethoxy)quinazoline]
188 to 190 °C | COc1cc2c(Nc3ccc(Cl)cc3F)ncnc2cc1OCCOc1cccnc1 [Example 69, 4-(4-chloro-2-fluoroanilino)-6-methoxy-7-(2-(3-pyridyloxy)ethoxy)quinazoline]
212 to 214 °C | CCOC(=O)c1cc(COc2cc3ncnc(Nc4ccc(Cl)cc4F)c3cc2OC)ccn1 [Example 93, 4-(4-chloro-2-fluoroanilino)-7-(2-ethoxycarbonylpyrid-4-yl)methoxy-6-methoxyquinazoline]

Compound | melting point
COc1cc2c(Nc3ccc(C)c(OC(C)=O)c3)ncnc2cc1OCc1cccnc1 [Example 2, 4-(3-acetoxy-4-methylanilino)-6-methoxy-7-(3-pyridylmethoxy)quinazoline] | 113 to 115 °C
